Tested on: isolated human pDCs
Assay: P. falciparum nuclear extract-induced IFNα production in human pDCs
Assay type: cell-based
Details: for IFNα level: nuclear extract
Experimental: Human PBMCs were prepared using Buffy Coats as source material from healthy donations (approx. 50 ml obtained from Blutspendezentrum SRK Basel) and processed as indicated above. Fresh PBMCs were resuspended and diluted in RoboSep™ buffer (PBS containing 2% v/v FBS, 1 mM EDTA (Gibco #15575-038) to obtain a final concentration of 50×10^6 PBMCs/ml. Human pDCs (negative selection) were isolated using plasmacytoid DC Enrichment kit (Stemcell, #19062) using an automation RobSep™ station as described according to manufacturer protocols. Typical pDC yields were approx. 0.1% of total PBMCs and with a purity>90%. Isolated pDCs were diluted to 4×10^5 cells/ml and seeded in 384-well plates (#353962; Becton Dickinson AG) to give a final volume of 25 μl (i.e. 1×10^4 cells/well). For stimulation using malaria nuclear extact (see below), pDCs were seeded at a final concentration of 5×10^4 cells/well.
The preparation of the nuclear extract of plasmodium falciparum was performed according to Gowda et al [Gowda et al. “The Nucleosome (Histone-DNA Complex) Is the TLR9-Specific Immunostimulatory Component of Plasmodium falciparum That Activates DCs”, PLoS ONE 2011]. In brief, Plasmodium falciparum 3D7 parasites were cultured in human red blood cell at 2% hematocrit. When the parasite was at late trophozoite and schizont stages, the infected red blood cells (IRBCs) were harvested by centrifugation and the pellets were re-suspended in 20 volumes of 0.1% saponin (m/v) in PBS, pH 7.2. The re-suspension was incubated on ice for 10 minutes and centrifuged at 2,500 g at 4° C. for 15 min. The pellet was re-suspended in the above solution, incubated on ice for 10 min and centrifuged at 2,500 g at 4° C. for 15 min. The parasite pellet thus obtained was washed 3 times with cold PBS, pH 7.2, by centrifugation. Each time 35 ml of cold PBS was used. The pellet obtained after the last centrifugation was suspended in 10 volumes of lysis buffer (20 mM HEPES, pH 7.5, 10 mM KCl, 1 mM EDTA, 1 mM dithiothreitol, 1 mM phenylmethylsulfonyl fluoride (PMSF) and 1% Triton X-100) and incubated on ice for 5 min. The suspension was centrifuged at 5,000 g at 4° C. for 10 min, and nuclear material was washed three times with the lysis buffer to remove membrane components. The nuclear material was re-suspended in PBS, pH 7.2. Insoluble material was subsequently solubilized by using a water-bath sonicator.
Compounds were pre-diluted in 100% v/v DMSO (#41640-100 mL; Sigma-Aldrich), followed by transfer in Media (to achieve a final DMSO concentration of 0.25%). Cells were treated with appropriate compound dilution (5 μl) or vehicle control (5 μl) and incubated for 30 min at 37° C. in a humidified incubator in air with 5% (v/v) CO2. Cells were stimulated with CpG2216 (0.3 μM; #tlrl-hodna; Invivogen), malaria nuclear extract (2.5 μg/ml; see above for preparation) or vehicle control (10 μl/well) and incubated for 20 h. Plates were briefly centrifuged (200×g for 2 min at 22° C.) and supernatant samples (30 μl) removed for quantification of IFNα levels.
For quantification of IFNalpha the human interferon AlphaLISA Kit (#AL264F) from PerkinElmer was used. An antibody mix containing anti-IFNα acceptor beads (5 μg/ml final) and biotinylated antibody anti-IFNα(0.5 nM final) is prepared fresh and dispensed (5 μl) into 384-well Optiplates™ (#6007299; PerkinElmer). Dilution of known IFNα standards (human IFNα B (2b)) were prepared and together with cell supernatants (5 μl) were added to plates above. Plates were briefly centrifuged (pulse at 200 g), covered with adhesive sealing film, vortexed and incubated 1 h at room temperature in the dark. Streptavidin-coated donor beads (20 μg/ml final) was prepared and added to each well (5 μl) in a dark lit area (light sensitive mix). Plates were incubated 30 min at room temperature (Plates must not be centrifuged or covered). […]

CCC(=O)N1CC[C@H](Nc2ncnc3c2CN(c2cnc(OC)c(C(F)(F)F)c2)CC3)C1 [Example 67, 1-{(S)-3-[6-(6-Methoxy-5-trifluoromethyl-pyridin-3-yl)-5,6,7,8-tetrahydro-pyrido[4,3-d]pyrimidin-4-ylamino]-pyrrolidin-1-yl}-propan-1-one]
inhibition at 0.01 µM (compound 0.01 μM, read-out: % inh. of IFNα by nuclear extract): 25%
inhibition at 0.1 µM (compound 0.1 μM, read-out: % inh. of IFNα by nuclear extract): 64%
inhibition at 1 µM (compound 1 μM, read-out: % inh. of IFNα by nuclear extract): 77%
IFNα level (compound 0.01 μM): 4084 pg/mL
IFNα level (compound 0.1 μM): 2110 pg/mL
IFNα level (compound 1 μM): 1483 pg/mL

— US9949979B2, “Use of inhibitors of the activity or function of PI3K” (NOVARTIS AG, priority 2011, dated 2018)
